Measurements as given in ChEMBL document CHEMBL1145105, “Synthesis and benzodiazepine receptor affinity of pyrazolo[1,5-a]pyrimidine derivatives. 3. New 6-(3-thienyl) series as alpha 1 selective ligands” (J Med Chem, 2003).
Several values for one entry are separate records, joined by “and”; a condition that tells them apart may be missing. Equal entries are not always repeated.

Tests used:
[1] = biological target: GABA-A receptor; anion channel; assay: Inhibition of [3H]Ro-151788 binding to GABA-A central benzodiazepine receptor of bovine brain membranes; assay type: cell membranes, Bos taurus
[2] = biological target: T1, GABA-A receptor; anion channel (Bos taurus) (UniProt P10063+P08220+P20237+P08219+P10064+P22300); assay: Relative binding to GABA-A receptor in the presence and absence of GABA (GABA shift), Ki(-GABA)/Ki(+GABA); assay type: protein-complex assay
[3] = biological target: T1, GABA-A receptor; anion channel (Bos taurus); assay: Percent inhibition of [3H]Ro-151788 binding to bovine brain GABA-A central benzodiazepine receptor at 0.2 nM
Mus musculus [4] = assay: Synergic sedative effect was tested in mice using the Hole Board test at peroral dose of 10 mg/kg, value was expressed in holes; assay type: functional; conditions: route oral
Mus musculus [5] = assay: Muscle relaxant effect in mice at dose of 3 mg/kg using rotarod test, value was expressed as no. of falls in 30 seconds; assay type: functional
Mus musculus [6] = assay: Synergic sedative effect was tested in mice using the Hole Board test at peroral dose of 3 mg/kg, value was expressed in holes; assay type: functional; conditions: route oral
Mus musculus [7] = assay: Muscle relaxant effect in mice at dose of 10 mg/kg using rotarod test, value was expressed as no. of falls in 30 seconds; assay type: functional
Mus musculus [8] = assay: Percent anticonvulsant activity against PTZ induced attack in mice at dose of 10 mg/kg; assay type: functional
Mus musculus [9] = assay: Percent anticonvulsant activity against PTZ induced attack in mice at dose of 3 mg/kg; assay type: functional
Mus musculus [10] = assay: Synergic sedative effect was tested in mice using the Hole Board test at peroral dose of 3 mg/kg, value was expressed in plane; assay type: functional; conditions: route oral
Mus musculus [11] = assay: Synergic sedative effect was tested in mice using the Hole Board test at peroral dose of 10 mg/kg, value was expressed in plane; assay type: functional; conditions: route oral
[12] = biological target: GABA A receptor alpha-5/beta-3/gamma-2 (Rattus norvegicus, UniProt P18508+P19969+P63079); assay: Binding affinity for recombinant rat GABA-A receptor alpha-5-beta-3-gamma-2 subunits expressed in HEK 293 cells; assay type: cell-based, HEK293
Chain of GABA A receptor alpha-5/beta-3/gamma-2 (P18508 whole entry): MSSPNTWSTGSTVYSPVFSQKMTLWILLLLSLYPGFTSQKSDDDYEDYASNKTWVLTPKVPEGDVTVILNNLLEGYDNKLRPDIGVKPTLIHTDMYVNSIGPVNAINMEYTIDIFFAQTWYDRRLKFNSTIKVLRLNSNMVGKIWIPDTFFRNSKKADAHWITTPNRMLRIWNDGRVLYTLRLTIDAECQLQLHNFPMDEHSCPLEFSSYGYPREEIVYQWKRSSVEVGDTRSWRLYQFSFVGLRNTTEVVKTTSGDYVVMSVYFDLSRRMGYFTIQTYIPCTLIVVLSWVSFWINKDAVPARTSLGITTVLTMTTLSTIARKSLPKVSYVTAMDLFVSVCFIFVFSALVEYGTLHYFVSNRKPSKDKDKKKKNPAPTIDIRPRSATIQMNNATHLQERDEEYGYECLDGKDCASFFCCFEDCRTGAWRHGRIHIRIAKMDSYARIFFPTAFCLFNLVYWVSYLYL
Chain of GABA A receptor alpha-5/beta-3/gamma-2 (P19969 whole entry): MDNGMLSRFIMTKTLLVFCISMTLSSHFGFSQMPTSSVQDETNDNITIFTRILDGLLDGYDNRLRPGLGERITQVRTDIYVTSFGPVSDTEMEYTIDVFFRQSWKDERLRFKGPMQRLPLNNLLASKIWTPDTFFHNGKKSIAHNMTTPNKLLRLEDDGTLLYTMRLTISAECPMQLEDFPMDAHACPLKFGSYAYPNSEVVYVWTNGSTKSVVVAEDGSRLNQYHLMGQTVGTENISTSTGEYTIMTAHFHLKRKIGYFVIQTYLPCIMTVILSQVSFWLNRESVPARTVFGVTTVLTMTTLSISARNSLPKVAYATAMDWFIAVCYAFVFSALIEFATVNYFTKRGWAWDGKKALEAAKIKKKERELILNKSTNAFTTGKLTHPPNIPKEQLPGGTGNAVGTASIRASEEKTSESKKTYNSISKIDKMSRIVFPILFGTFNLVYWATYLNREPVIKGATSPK
Chain of GABA A receptor alpha-5/beta-3/gamma-2 (P63079 whole entry): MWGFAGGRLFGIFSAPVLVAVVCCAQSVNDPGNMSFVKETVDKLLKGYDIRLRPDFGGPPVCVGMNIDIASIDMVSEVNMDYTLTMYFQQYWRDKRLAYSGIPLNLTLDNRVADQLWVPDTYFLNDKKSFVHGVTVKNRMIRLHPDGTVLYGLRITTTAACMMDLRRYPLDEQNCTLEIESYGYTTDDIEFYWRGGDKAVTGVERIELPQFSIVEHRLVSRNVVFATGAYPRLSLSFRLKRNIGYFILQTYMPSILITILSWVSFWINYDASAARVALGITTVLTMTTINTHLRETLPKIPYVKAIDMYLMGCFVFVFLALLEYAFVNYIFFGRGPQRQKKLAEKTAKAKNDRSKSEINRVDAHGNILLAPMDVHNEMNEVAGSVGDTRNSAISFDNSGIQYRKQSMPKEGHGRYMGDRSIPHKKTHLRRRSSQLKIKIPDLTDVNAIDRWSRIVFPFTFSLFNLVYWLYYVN

[13] = biological target: T2, GABA A receptor alpha-2/beta-2/gamma-2 (Rattus norvegicus, UniProt P18508+P23576+P63138); assay: Binding affinity for recombinant rat GABA-A receptor alpha-2-beta-2-gamma-2 subunits expressed in HEK293 cells; assay type: cell-based
T2 sequence (P18508 whole entry): as the sequence (P18508 whole entry) above
T2 sequence (P23576 whole entry): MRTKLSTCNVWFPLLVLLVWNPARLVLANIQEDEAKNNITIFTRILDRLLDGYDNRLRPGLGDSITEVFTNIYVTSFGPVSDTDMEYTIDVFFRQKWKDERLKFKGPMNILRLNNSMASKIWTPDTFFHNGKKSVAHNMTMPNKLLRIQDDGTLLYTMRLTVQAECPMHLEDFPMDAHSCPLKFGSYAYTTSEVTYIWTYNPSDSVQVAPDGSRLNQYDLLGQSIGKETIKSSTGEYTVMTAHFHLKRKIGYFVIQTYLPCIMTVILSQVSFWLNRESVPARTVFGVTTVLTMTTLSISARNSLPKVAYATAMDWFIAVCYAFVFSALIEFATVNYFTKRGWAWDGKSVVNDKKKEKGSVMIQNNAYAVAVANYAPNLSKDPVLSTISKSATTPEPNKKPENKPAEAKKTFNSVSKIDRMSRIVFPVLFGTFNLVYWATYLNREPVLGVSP
T2 sequence (P63138 whole entry): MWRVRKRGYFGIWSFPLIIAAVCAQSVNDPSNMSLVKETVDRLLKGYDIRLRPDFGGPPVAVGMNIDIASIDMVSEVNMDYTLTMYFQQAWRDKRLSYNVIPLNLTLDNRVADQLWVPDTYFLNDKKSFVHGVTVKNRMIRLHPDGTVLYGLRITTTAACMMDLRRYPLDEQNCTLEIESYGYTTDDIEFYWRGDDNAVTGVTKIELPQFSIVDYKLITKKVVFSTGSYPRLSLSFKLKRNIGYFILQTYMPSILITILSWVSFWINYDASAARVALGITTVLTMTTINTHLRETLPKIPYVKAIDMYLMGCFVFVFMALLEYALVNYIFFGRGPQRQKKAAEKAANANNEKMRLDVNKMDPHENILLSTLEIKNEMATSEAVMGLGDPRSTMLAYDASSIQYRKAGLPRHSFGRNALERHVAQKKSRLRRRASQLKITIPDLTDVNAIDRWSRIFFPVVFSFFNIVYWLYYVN

[14] = biological target: GABA-A receptor; alpha-1/beta-2/gamma-2 (Rattus norvegicus, UniProt P18508+P62813+P63138); assay: Binding affinity for recombinant rat GABA-A receptor alpha-1-beta-2-gamma-2 subunits expressed in HEK293 cells; assay type: cell-based
Chain of GABA-A receptor; alpha-1/beta-2/gamma-2 (P18508 whole entry): as the sequence (P18508 whole entry) above
Chain of GABA-A receptor; alpha-1/beta-2/gamma-2 (P62813 whole entry): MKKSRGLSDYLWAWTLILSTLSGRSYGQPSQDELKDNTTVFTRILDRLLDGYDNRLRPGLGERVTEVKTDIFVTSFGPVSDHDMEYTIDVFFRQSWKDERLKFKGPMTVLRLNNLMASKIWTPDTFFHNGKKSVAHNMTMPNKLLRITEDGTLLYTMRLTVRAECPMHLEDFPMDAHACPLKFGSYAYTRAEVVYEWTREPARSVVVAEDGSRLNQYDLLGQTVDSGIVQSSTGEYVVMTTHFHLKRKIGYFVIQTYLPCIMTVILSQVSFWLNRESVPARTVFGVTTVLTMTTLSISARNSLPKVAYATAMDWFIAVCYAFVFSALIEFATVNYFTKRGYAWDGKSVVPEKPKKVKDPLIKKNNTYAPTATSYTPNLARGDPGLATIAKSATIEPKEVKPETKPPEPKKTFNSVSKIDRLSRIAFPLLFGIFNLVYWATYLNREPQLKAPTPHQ
Chain of GABA-A receptor; alpha-1/beta-2/gamma-2 (P63138 whole entry): as the sequence (P63138 whole entry) above

Mus musculus [15] = assay: Muscle relaxant effect in mice at dose of 30 mg/kg using rotarod test, value was expressed as no. of falls in 30 seconds; assay type: functional
Mus musculus [16] = assay: Antianxiety activity was tested in mice at dose of 10 mg/kg using light/dark box test; assay type: functional
Mus musculus [17] = assay: Percent anticonvulsant activity against PTZ induced attack in mice at dose of 30 mg/kg; assay type: functional
Mus musculus [18] = assay: Synergic sedative effect was tested in mice using the Hole Board test at peroral dose of 30 mg/kg, value was expressed in plane; assay type: functional; conditions: route oral
Mus musculus [19] = assay: Antianxiety activity was tested in mice at dose of 10 mg/kg in light; assay type: functional
Mus musculus [20] = assay: Synergic sedative effect was tested in mice using the Hole Board test at peroral dose of 30 mg/kg, value was expressed in holes; assay type: functional; conditions: route oral
Mus musculus [21] = assay: Antianxiety activity was tested in mice at dose of 30 mg/kg using light/dark box test; assay type: functional
[22] = biological target: GABA A receptor alpha-3/beta-2/gamma-2 (Rattus norvegicus, UniProt P18508+P20236+P63138); assay: Binding affinity for recombinant rat GABA-A receptor alpha-3-beta-2-gamma-2 subunits expressed in HEK293 cells; assay type: cell-based
Chain of GABA A receptor alpha-3/beta-2/gamma-2 (P18508 whole entry): as the sequence (P18508 whole entry) above
Chain of GABA A receptor alpha-3/beta-2/gamma-2 (P20236 whole entry): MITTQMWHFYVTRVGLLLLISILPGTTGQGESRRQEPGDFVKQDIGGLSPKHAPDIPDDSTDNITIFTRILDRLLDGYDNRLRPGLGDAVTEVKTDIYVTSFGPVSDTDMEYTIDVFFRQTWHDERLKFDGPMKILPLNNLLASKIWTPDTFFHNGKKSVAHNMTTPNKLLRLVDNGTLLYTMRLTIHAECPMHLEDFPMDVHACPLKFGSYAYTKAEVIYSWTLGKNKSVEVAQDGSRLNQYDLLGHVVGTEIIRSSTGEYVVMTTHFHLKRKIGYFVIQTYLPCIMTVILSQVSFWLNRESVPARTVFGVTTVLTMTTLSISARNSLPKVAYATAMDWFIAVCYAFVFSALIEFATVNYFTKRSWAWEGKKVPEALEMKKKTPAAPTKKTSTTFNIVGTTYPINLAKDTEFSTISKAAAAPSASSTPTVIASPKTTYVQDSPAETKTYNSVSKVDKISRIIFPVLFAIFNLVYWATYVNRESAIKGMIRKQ
Chain of GABA A receptor alpha-3/beta-2/gamma-2 (P63138 whole entry): as the sequence (P63138 whole entry) above

Mus musculus [23] = assay: Antianxiety activity was tested in mice at dose of 30 mg/kg in light; assay type: functional
[24] = biological target: T2, GABA A receptor alpha-2/beta-2/gamma-2; assay: Binding affinity for recombinant rat alpha-2-beta-2-gamma-2 GABA-A receptor subunits expressed in HEK293 cells; assay type: cell-based
Mus musculus [25] = assay: Muscle relaxant effect in mice at peroral dose of 1 mg/kg using rotarod test, value was expressed as no. of falls in 30 seconds; assay type: functional; conditions: route oral
Mus musculus [26] = assay: Antianxiety activity was tested in mice at peroral dose of 0.3 mg/kg using light/dark box test; assay type: functional; conditions: route oral
Mus musculus [27] = assay: Muscle relaxant effect in mice at peroral dose of 0.3 mg/kg using rotarod test, value was expressed as no. of falls in 30 seconds; assay type: functional; conditions: route oral
Mus musculus [28] = assay: Antianxiety activity was tested in mice at peroral dose of 0.3 mg/kg in light; assay type: functional; conditions: route oral
Mus musculus [29] = assay: Antianxiety activity was tested in mice at peroral dose of 1 mg/kg in light; assay type: functional; conditions: route oral
Mus musculus [30] = assay: Antianxiety activity was tested in mice at peroral dose of 1 mg/kg using light/dark box test; assay type: functional; conditions: route oral

Structure (SMILES) | Ki [1] | Ratio [2] | inhibition [3] | No. of falls (Mus musculus [7]) | Activity (Mus musculus [8]) | Ki [12] | Ki [13] | Ki [14] | also measured
Oc1c(-c2ccsc2)cnc2c(-c3cccc(F)c3)cnn12 | 0.073 µM | 1.2 | 92% | – | – | – | – | – | –
Oc1c(-c2ccsc2)cnc2c(Cc3ccccc3)cnn12 | – | – | 55% | – | – | – | – | – | –
Cc1ccc(-c2nc3ccc(C)cn3c2CC(=O)N(C)C)cc1 [ZOLPIDEM] | – | – | – | 0.8 | 90% | – | – | – | No. of counts (Mus musculus [4]): 26.3; No. of falls (Mus musculus [5]): 0.2; No. of counts (Mus musculus [6]): 45; Activity (Mus musculus [9]): 70%; No. of counts (Mus musculus [10]): 84.7; No. of counts (Mus musculus [11]): 54.4
Oc1c(-c2ccsc2)cnc2c(-c3cccc4ccccc34)cnn12 | 0.04 µM | 1.02 | 92% | – | – | 0.156 µM | > 10 µM | 0.047 µM | –
Oc1c(-c2ccsc2)cnc2c(-c3ccccn3)cnn12 | 0.0039 µM | 1.1 | 98% | 0.3 | 19% | 0.74 µM | 0.927 µM | 0.007 µM | No. of falls (Mus musculus [15]): 0.3; No. of counts (Mus musculus [4]): 55.9; No. of crosses (Mus musculus [16]): 19.6; Activity (Mus musculus [17]): 10%; No. of counts (Mus musculus [18]): 110.4; Time (Mus musculus [19]): 90.6 s; No. of counts (Mus musculus [11]): 96.6; No. of counts (Mus musculus [20]): 50.9
Oc1c(-c2ccsc2)cnc2c(-c3cccc(C(F)(F)F)c3)cnn12 | 0.0058 µM | 2 | 96% | 0.1 | 29.4% | 0.207 µM | 0.54 µM | 0.01 µM | No. of falls (Mus musculus [15]): 0.2; No. of counts (Mus musculus [4]): 60.7; No. of crosses (Mus musculus [16]): 17.1; No. of crosses (Mus musculus [21]): 12.7; Ki [22]: 0.089 µM; Activity (Mus musculus [17]): 0%; Time (Mus musculus [19]): 69.4 s; Time (Mus musculus [23]): 77.3 s; No. of counts (Mus musculus [11]): 139.6
Oc1c(-c2ccsc2)cnc2c(-c3ccsc3)cnn12 | 0.016 µM | 1.3 | 100% | 0 | 36.4% | 0.223 µM | 0.2 µM | 0.023 µM | No. of falls (Mus musculus [15]): 0.3; No. of counts (Mus musculus [4]): 52.7; No. of crosses (Mus musculus [16]): 19.7; No. of crosses (Mus musculus [21]): 11.8; Ki [22]: 0.196 µM; Activity (Mus musculus [17]): 9.1%; Time (Mus musculus [19]): 94.9 s; Time (Mus musculus [23]): 72.3 s; No. of counts (Mus musculus [11]): 12.2
Oc1c(-c2ccsc2)cnc2c(-c3cccc(Br)c3)cnn12 | 0.0088 µM | 1.72 | 87% | – | – | 0.022 µM | 0.291 µM | 0.01 µM | Ki [22]: 0.111 µM
COc1cccc(-c2cnn3c(O)c(-c4ccsc4)cnc23)c1 | 0.0422 µM | 1.25 | 92% | – | – | 0.737 µM | – | 0.043 µM | Ki [24]: 0.827 µM
Cc1cccc(-c2cnn3c(O)c(-c4ccsc4)cnc23)c1 | 0.026 µM | 2 | 97% | – | – | – | – | – | –
Oc1c(-c2ccsc2)cnc2c(-c3ccc(F)cc3)cnn12 | 0.031 µM | 0.9 | 99% | – | – | – | – | – | –
Oc1c(-c2ccsc2)cnc2c(-c3cccnc3)cnn12 | 0.03 µM | 1.51 | 100% | – | – | 0.21 µM | 0.315 µM | 0.025 µM | –
Oc1c(-c2ccsc2)cnc2c(-c3ccccc3)cnn12 | 0.111 µM | 1.71 | 94% | – | – | – | – | – | –
Cc1ccc(-c2nc3ccc(C)cn3c2CC(=O)N(C)C)cc1.Oc1c(-c2ccsc2)cnc2c(-c3ccccn3)cnn12 | – | – | – | 1.1 | 90% | – | – | – | No. of counts (Mus musculus [4]; 10 mg/kg): 25.8 and 9.38; No. of counts (Mus musculus [11]; 10 mg/kg): 68 and 28.7
CN1C(=O)CN=C(c2ccccc2)c2cc(Cl)ccc21 [DIAZEPAM] | – | – | – | – | – | – | – | – | No. of falls (Mus musculus [25]): 0.7; No. of crosses (Mus musculus [26]): 22; No. of falls (Mus musculus [27]): 0.5; Time (Mus musculus [28]): 85 s; Time (Mus musculus [29]): 117.5 s; No. of crosses (Mus musculus [30]): 21.5
Oc1c(-c2ccsc2)cnc2c(-c3ccc4ccccc4c3)cnn12 | – | – | 30% | – | – | – | – | – | –
CN1C(=O)CN=C(c2ccccc2)c2cc(Cl)ccc21.Oc1c(-c2ccsc2)cnc2c(-c3ccccn3)cnn12 | – | – | – | 0.5 | 90% | – | – | – | No. of counts (Mus musculus [4]): 25.8; No. of crosses (Mus musculus [16]): 26.2; Time (Mus musculus [19]): 120.9 s; No. of counts (Mus musculus [11]): 68
